Reference: article PMC10141580, “Cyclic Dichalcogenides Extend the Reach of Bioreductive Prodrugs to Harness Thiol/Disulfide Oxidoreductases: Applications to seco-Duocarmycins Targeting the Thioredoxin System” (ACS Central Science, 2023)
Several values for one entry are separate records, joined by “and”; a condition that tells them apart may be missing. Equal entries are not always repeated. Where two headings read alike, the source gives them in different places.

Tested on: NCI-60 standardized human tumor cell line panel
Assay: cells
Assay type: cell-based

## COc1cc2cc(C(=O)N3C[C@@H](CCl)c4c3cc(OC(=O)N(CCC(=O)N3CCN(C)CC3)C3CCCCC3)c3ccccc43)[nH]c2c(OC)c1OC [P-CC60-CBI-TMI]
SN12C (RE) cell line, log10 of GI50 in M
  NCI-60 screening: Log(GI50): -5.92
SN12C, read-out: GI50
  GI50: 1.2 µM
SNB-19, read-out: GI50
  GI50: 2.2 µM
SR, read-out: GI50
  GI50: 0.28 µM
SW-620, read-out: GI50
  GI50: 1.9 µM
T-47D, read-out: GI50
  GI50: 1.9 µM
TK-10 (RE) cell line, log10 of GI50 in M
  NCI-60 screening: Log(GI50): -5.55
TK-10 (RE) cell line, read-out: NCI-60 screening: Raw GI50
  GI50: 2.8 µM
TK-10, read-out: GI50
  GI50: 2.8 µM
U251, read-out: GI50
  GI50: 1.5 µM
UACC-62, read-out: GI50
  GI50: 1.5 µM
UACC-257, read-out: GI50
  GI50: 2 µM
Cell line A549/ATCC (LC:A549/ATCC), TMI sheet
  NCI-60 screening: Log(GI50): -5.7
Cell line A549/ATCC (LC:A549/ATCC), TMI sheet, read-out: NCI-60 screening: Raw GI50
  GI50: 2 µM
Cell line BT-549 (BR:BT-549), TMI sheet
  NCI-60 screening: Log(GI50): -5.8
Cell line BT-549 (BR:BT-549), TMI sheet, read-out: NCI-60 screening: Raw GI50
  GI50: 1.6 µM
Cell line CCRF-CEM (LE:CCRF-CEM), TMI sheet
  NCI-60 screening: Log(GI50): -6
Cell line COLO 205 (CO:COLO 205), TMI sheet
  NCI-60 screening: Log(GI50): -5.86
Cell line COLO 205 (CO:COLO 205), TMI sheet, read-out: NCI-60 screening: Raw GI50
  GI50: 1.4 µM
Cell line EKVX (LC:EKVX), TMI sheet
  NCI-60 screening: Log(GI50): -5.71
Cell line EKVX (LC:EKVX), TMI sheet, read-out: NCI-60 screening: Raw GI50
  GI50: 1.9 µM
Cell line HCC-2998 (CO:HCC-2998), TMI sheet
  NCI-60 screening: Log(GI50): -5.82
Cell line HCC-2998 (CO:HCC-2998), TMI sheet, read-out: NCI-60 screening: Raw GI50
  GI50: 1.5 µM
Cell line HCT-15 (CO:HCT-15), TMI sheet
  NCI-60 screening: Log(GI50): -5.76
Cell line HCT-15 (CO:HCT-15), TMI sheet, read-out: NCI-60 screening: Raw GI50
  GI50: 1.7 µM
Cell line HCT-116 (CO:HCT-116), TMI sheet
  NCI-60 screening: Log(GI50): -5.82
Cell line HCT-116 (CO:HCT-116), TMI sheet, read-out: NCI-60 screening: Raw GI50
  GI50: 1.5 µM
Cell line HL-60(TB) (LE:HL-60(TB)), TMI sheet
  NCI-60 screening: Log(GI50): -6.12
Cell line HOP-62 (LC:HOP-62), TMI sheet
  NCI-60 screening: Log(GI50): -6.23
Cell line HOP-62 (LC:HOP-62), TMI sheet, read-out: NCI-60 screening: Raw GI50
  GI50: 0.59 µM
Cell line HOP-92 (LC:HOP-92), TMI sheet
  NCI-60 screening: Log(GI50): -5.6
Cell line HT29 (CO:HT29), TMI sheet
  NCI-60 screening: Log(GI50): -5.82
Cell line HT29 (CO:HT29), TMI sheet, read-out: NCI-60 screening: Raw GI50
  GI50: 1.5 µM
Cell line K-562 (LE:K-562), TMI sheet
  NCI-60 screening: Log(GI50): -6.17
Cell line KM12 (CO:KM12), TMI sheet
  NCI-60 screening: Log(GI50): -5.68
Cell line KM12 (CO:KM12), TMI sheet, read-out: NCI-60 screening: Raw GI50
  GI50: 2.1 µM
Cell line LOX IMVI (ME:LOX IMVI), TMI sheet
  NCI-60 screening: Log(GI50): -5.96
Cell line LOX IMVI (ME:LOX IMVI), TMI sheet, read-out: NCI-60 screening: Raw GI50
  GI50: 1.1 µM
Cell line M14 (ME:M14), TMI sheet
  NCI-60 screening: Log(GI50): -5.82
Cell line M14 (ME:M14), TMI sheet, read-out: NCI-60 screening: Raw GI50
  GI50: 1.5 µM
Cell line MALME-3M (ME:MALME-3M), TMI sheet
  NCI-60 screening: Log(GI50): -5.8
Cell line MALME-3M (ME:MALME-3M), TMI sheet, read-out: NCI-60 screening: Raw GI50
  GI50: 1.6 µM
Cell line MCF7 (BR:MCF7), TMI sheet
  NCI-60 screening: Log(GI50): -6.5
Cell line MDA-MB-435 (ME:MDA-MB-435), TMI sheet
  NCI-60 screening: Log(GI50): -5.75
Cell line MOLT-4 (LE:MOLT-4), TMI sheet
  NCI-60 screening: Log(GI50): -6.23
Cell line MOLT-4 (LE:MOLT-4), TMI sheet, read-out: NCI-60 screening: Raw GI50
  GI50: 0.59 µM
Cell line NCI-H23 (LC:NCI-H23), TMI sheet
  NCI-60 screening: Log(GI50): -6.33
Cell line NCI-H226 (LC:NCI-H226), TMI sheet
  NCI-60 screening: Log(GI50): -5.84
Cell line NCI-H226 (LC:NCI-H226), TMI sheet, read-out: NCI-60 screening: Raw GI50
  GI50: 1.4 µM
Cell line RPMI-8226 (LE:RPMI-8226), TMI sheet
  NCI-60 screening: Log(GI50): -5.83
Cell line RPMI-8226 (LE:RPMI-8226), TMI sheet, read-out: NCI-60 screening: Raw GI50
  GI50: 1.5 µM
Cell line SF-268 (CNS:SF-268), TMI sheet
  NCI-60 screening: Log(GI50): -5.81
Cell line SF-268 (CNS:SF-268), TMI sheet, read-out: NCI-60 screening: Raw GI50
  GI50: 1.5 µM
Cell line SF-295 (CNS:SF-295), TMI sheet
  NCI-60 screening: Log(GI50): -5.81
Cell line SF-295 (CNS:SF-295), TMI sheet, read-out: NCI-60 screening: Raw GI50
  GI50: 1.5 µM
Cell line SF-539 (CNS:SF-539), TMI sheet
  NCI-60 screening: Log(GI50): -5.88
Cell line SK-MEL-5 (ME:SK-MEL-5), TMI sheet
  NCI-60 screening: Log(GI50): -5.79
Cell line SK-MEL-5 (ME:SK-MEL-5), TMI sheet, read-out: NCI-60 screening: Raw GI50
  GI50: 1.6 µM
Cell line SK-MEL-28 (ME:SK-MEL-28), TMI sheet
  NCI-60 screening: Log(GI50): -5.45
Cell line SNB-19 (CNS:SNB-19), TMI sheet
  NCI-60 screening: Log(GI50): -5.65
Cell line SNB-19 (CNS:SNB-19), TMI sheet, read-out: NCI-60 screening: Raw GI50
  GI50: 2.2 µM
Cell line SR (LE:SR), TMI sheet
  NCI-60 screening: Log(GI50): -6.56
Cell line SW-620 (CO:SW-620), TMI sheet
  NCI-60 screening: Log(GI50): -5.72
Cell line SW-620 (CO:SW-620), TMI sheet, read-out: NCI-60 screening: Raw GI50
  GI50: 1.9 µM
Cell line T-47D (BR:T-47D), TMI sheet
  NCI-60 screening: Log(GI50): -5.72
Cell line T-47D (BR:T-47D), TMI sheet, read-out: NCI-60 screening: Raw GI50
  GI50: 1.9 µM
Cell line U251 (CNS:U251), TMI sheet
  NCI-60 screening: Log(GI50): -5.82
Cell line U251 (CNS:U251), TMI sheet, read-out: NCI-60 screening: Raw GI50
  GI50: 1.5 µM
Cell line UACC-62 (ME:UACC-62), TMI sheet
  NCI-60 screening: Log(GI50): -5.82
Cell line UACC-62 (ME:UACC-62), TMI sheet, read-out: NCI-60 screening: Raw GI50
  GI50: 1.5 µM
Cell line UACC-257 (ME:UACC-257), TMI sheet
  NCI-60 screening: Log(GI50): -5.7
Cell line UACC-257 (ME:UACC-257), TMI sheet, read-out: NCI-60 screening: Raw GI50
  GI50: 2 µM
read-out: GI50
  GI50: 1.5 µM and 2.4 µM
read-out: NCI-60 screening: Raw GI50
  GI50: 1.5 µM
